{"source": "patent US11602534B2", "about": "“Pyrimidine derivative kinase inhibitors” (HEFEI INSTITUTES OF PHYSICAL SCIENCE, CHINESE ACADEMY OF …, priority 2017, dated 2023)", "key": {"Tel-cKit-BaF3": {"system": "Tel-cKit-BaF3", "experiment": "Proliferation of Tel-cKit-BaF3 cells, CCK8 cell viability assay", "format": "cell-based, mouse", "details": "Mus musculus; 72 hours, CCK8; stably expressing cKIT kinase", "procedure,_shortened": "(§1)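 GI50 (μM) from CCK8 read-out, which measures reductive dehydrogenase activity in living cells. Cells: parental mouse BaF3, or BaF3 stably expressing TEL-fused human cKIT, PDGFRα or PDGFRβ kinase domains and grown without IL-3, making them kinase-dependent.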"}, "BaF3": {"system": "BaF3", "experiment": "Proliferation of BaF3 cells, CCK8 cell viability assay", "format": "cell-based", "details": "Mus musculus, 72 hours", "procedure,_shortened": "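Murine BaF3 lines carry retrovirally transduced human kinase domains fused to an N-terminal TEL fragment (cKIT, PDGFRα or PDGFRβ), and IL-3 is withdrawn so their growth depends on the fused kinase; parental BaF3 serves as the reference line. Living cells were quantified by CCK8 dehydrogenase activity, giving GI50 in μM.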"}, "TEL-PDGFRα-BaF3": {"system": "TEL-PDGFRα-BaF3", "experiment": "Proliferation of TEL-PDGFRα-BaF3 cells, CCK8 cell viability assay", "format": "cell-based", "details": "Mus musculus, 72 hours, stably expressing PDGFRα kinase", "procedure,_shortened": "as §1"}, "[1]": {"system": "human acute myeloid leukemia cell strain OCI-AML-3", "experiment": "Proliferation of OCI-AML-3 cells, Cell Titer-Glo", "format": "cell-based", "details": "72 hours, FLT3 A680V", "procedure": "(§2) In addition, in this example the inhibitory activity of preferred compounds (Compound 5 and Compound 135) was tested against the following cell strains: human acute myeloid leukemia cell strain MV4-11 (expressing FLT3/ITD mutant gene), human acute myeloid leukemia cell strain MOLM-13 (expressing FLT3/ITD mutant gene and wild-type FLT3 gene), human acute myeloid leukemia cell strain MOLM-14 (expressing FLT3/ITD mutant gene and wild-type FLT3 gene), human acute myeloid leukemia cell strain OCI-AML-3 (expressing FLT3 A680V mutant gene), human chronic lymphatic leukemia cell strain MEC-1, Chinese hamster lung (CHL) cells, Chinese hamster ovary (CHO) cells, wherein all the cells were purchased from ATCC. In the example the compounds of the present invention were added respectively into the above cells at different concentrations (0.000508 μM, 0.00152 μM, 0.00457 μM, 0.0137 μM, 0.0411 μM, 0.123 μM, 0.370 μM, 1.11 μM, 3.33 μM, 10 μM in DMSO) and the cells were incubated for 72 hours. The number of viable cells was determined by quantification of ATP in living cells using Cell Titer-Glo® (Promega, the USA) Luminescent Cell Viability Assay kit and thereby GI50 was calculated."}, "[2]": {"system": "poly(ADP-ribose) polymerase (PARP)", "experiment": "Cell apoptosis: PARP cleavage by Western Blot in AML cells", "format": "cell-based, human", "details": "1 μM, 24 hours; MOLM-13, MOLM-14, MV-4-11", "from_the_text": "In human acute myeloid leukemia cells MV4-11 (expressing FLT3/ITD mutant gene) cell strain and human acute myeloid leukemia cells MOLM-13 and MOLM-14 (expressing FLT3/ITD mutant gene and wild-type FLT3 gene) cell strains, the effects of Compound 5 and Compound 135 on protein cleavage of the DNA repairase poly(ADP-ribose) polymerase (PARP) and Caspase (cysteinyl aspartate-specific proteinase) 3 that were closely related to cell apoptosis were examined in cells in order to confirm whether the death of the cells after the administration was caused by apoptosis or necrosis. MOLM-13, MOLM-14, MV-4-11 cell strains were treated with Compound 5, Compound 135 (at different concentrations: 0 μM, 0.1 μM, 0.3 μM, 1 μM, 3 μM in DMSO) and the control compound PKC412 (purchased from MedChem Express) (1 μM in DMSO), respectively, and the cells were collected after 24 hours. Western Blot was used to detect the effects of different concentrations of compounds on protein cleavage of the DNA repairase poly(ADP-ribose) polymerase (PARP) and Caspase (cysteinyl aspartate-specific proteinase) 3."}, "[3]": {"system": "human acute myeloid leukemia cell strain MV4-11", "experiment": "Proliferation of MV4-11 cells, Cell Titer-Glo", "format": "cell-based", "details": "for GI50: Homo sapiens, MV4-11, 72 hours, Cell Titer-Glo, FLT3/ITD", "procedure": "as §2"}, "[4]": {"system": "human chronic lymphatic leukemia cell strain MEC-1", "experiment": "Proliferation of MEC-1 cells, Cell Titer-Glo", "format": "cell-based", "details": "MEC1, 72 hours", "procedure": "as §2"}, "TEL-PDGFRβ-BaF3": {"system": "TEL-PDGFRβ-BaF3", "experiment": "Proliferation of TEL-PDGFRβ-BaF3 cells, CCK8 cell viability assay", "format": "cell-based", "details": "Mus musculus, 72 hours, stably expressing PDGFRβ kinase", "procedure,_shortened": "as §1"}, "Tel-RET-BaF3": {"system": "Tel-RET-BaF3", "experiment": "Proliferation of Tel-RET-BaF3 cells, CCK8 cell viability assay", "format": "cell-based", "details": "Mus musculus, 72 hours, stably expressing RET kinase"}}, "data": [{"compound": "CC(=O)Nc1cc(Oc2ccc(NC(=O)Cc3ccc(F)cc3F)cc2)ncn1", "note": "[Example 5, N-[4-(6-acetylamino-pyrimidin-4-yloxy)-phenyl]-2-(2,4-difluoro-phenyl)-acetamide]", "values": [{"measurement": "GI50", "setting": "Tel-cKit-BaF3", "result": 5.6, "unit": "µM"}, {"measurement": "GI50", "setting": "BaF3", "result": "> 10", "unit": "µM"}, {"measurement": "GI50", "setting": "TEL-PDGFRα-BaF3", "result": 0.014, "unit": "µM"}, {"measurement": "GI50", "setting": "[1]", "result": "> 10", "unit": "µM"}, {"measurement": "cleavage of the DNA repairase poly(ADP-ribose) polymerase (PARP)", "setting": "[2]", "result": "significant cleavage"}, {"measurement": "GI50", "setting": "[3]", "result": 0.147, "unit": "µM"}, {"measurement": "inhibition of MV4-11 (in words)", "setting": "[3]; summary of Table 3", "result": "selectively and strongly inhibited"}, {"measurement": "GI50", "setting": "[4]", "result": "> 10", "unit": "µM"}, {"measurement": "GI50", "setting": "TEL-PDGFRβ-BaF3", "result": 0.058, "unit": "µM"}, {"measurement": "GI50", "setting": "Tel-RET-BaF3", "result": "> 10", "unit": "µM"}]}, {"compound": "CC(=O)Nc1cc(Oc2ccc(NC(=O)Cc3ccccc3C(F)(F)F)cc2)ncn1", "note": "[Example 135, N-[4-(6-acetylamino-pyrimidin-4-yloxy)-phenyl]-2-(2-trifluoromethyl-phenyl)-acetamide]", "values": [{"measurement": "GI50", "setting": "Tel-cKit-BaF3", "result": "> 10", "unit": "µM"}, {"measurement": "GI50", "setting": "BaF3", "result": "> 10", "unit": "µM"}, {"measurement": "GI50", "setting": "TEL-PDGFRα-BaF3", "result": 0.007, "unit": "µM"}, {"measurement": "GI50", "setting": "[1]", "result": "> 10", "unit": "µM"}, {"measurement": "cleavage of the DNA repairase poly(ADP-ribose) polymerase (PARP)", "setting": "[2]", "result": "significant cleavage"}, {"measurement": "GI50", "setting": "[3]", "result": 0.284, "unit": "µM"}, {"measurement": "GI50", "setting": "[4]", "result": "> 10", "unit": "µM"}, {"measurement": "GI50", "setting": "TEL-PDGFRβ-BaF3", "result": 0.04, "unit": "µM"}, {"measurement": "GI50", "setting": "Tel-RET-BaF3", "result": "> 10", "unit": "µM"}]}]}
